Test results published in US4359462A, “Antibiotic 67-121, a new polyene antifungal antibiotic produced by Actinoplanes caeruleus” (priority 1980, dated 1982).
In brackets after ≈: the same amount, converted by molar mass. Like-named read-outs stand apart in the source and are kept apart here.

Key:
[1] = Acute toxicity in male CF 1 mice; details: mouse, in vivo
Protocol: Similarly, in another series of tests the acute toxicity of antibiotics 67-121A, 67-121B and 67121C were determined in male CF 1 mice.

[2] = system: Candida albicans; test: In vivo protective activity in mice against Candida albicans, single dose one hour after infection; parameters: species or system CF 1 mice; details: read-out: PD50
Protocol: (§1) The in vivo protective activity of the antibiotic products in mice (Carworth farm CF 1 mice, each weighing about 20 g.) against Candida albicans was determined. The antibiotic was administered by the stated route in an aqueous vehicle containing 0.5% carboxymethyl cellulose and in two doses. One dose was administered shortly before intravenous infection with a lethal dose of Candida albicans and the other dose was administered 4 hours after infection. Most of the unprotected control mice died within 24 to 48 hours after infection. The survival rate was determined at the end of 24 and 48 hours and from this using standard procedures the PD50 values were determined.
The PD50 values for antibiotics 67-121A, 67-121B and 67-121C using CF 1 mice were determined using essentially the above described method, with the exception that the antibiotic was administered as a single dose one hour after infection with Candida albicans.
The PD50 values were determined on survivors 72 hours after infection. Of the untreated, infected control mice, 80% died within 24 hours and 100% within 48 hours.

[3] = physchem; details: 66% aqueous dimethylformamide
[4] = system: Cryotococcus; test: In vitro antifungal activity, MIC by tube dilution; assay type: cell-based; details: single strain; same conditions (48 hours)
Protocol: (§2) For reference, data on candicidin are also given. The quoted minimal inhibitory concentrations (MIC) were obtained by conventional tube dilution techniques using Sabouraud's dextrose broth.
(§3) As representative of the component antibiotics, antibiotic 67-121A and antibiotic 67-121C were tested in the same manner as the complex. Antibiotic 67-121A gave MIC values of from less than 0.01 up to 0.03 meg/ml. against 18 strains of Candida albicans, while antibiotic 67-121C gave MIC values of 0.05 to 0.3 meg/ml. against 9 strains of Candida albicans after incubation times of 48 hours. Further testing of antibiotic 67-121C under the same conditions gave MIC values of 0.3 meg/ml. against two strains of Torulopsis and a single strain of Cryotococcus.

[5] = system: Torulopsis; test: In vitro antifungal activity, MIC by tube dilution; assay type: cell-based; details: two strains of Torulopsis; same conditions (48 hours)
Protocol: as §2, §3

[6] = system: Candida albicans; test: In vivo protective activity in mice against lethal Candida albicans infection, two doses; parameters: species or system mice (Carworth farm CF 1); details: survivors 48 hours after infection
Protocol: as §1
The results obtained for the Antibiotic 67-121 complex are given in Table 5 together with data for candicidin (for comparison purposes). The PD50 values were determined on survivors 48 hours after infection.

[7] = system: Candida albicans; test: In vitro antifungal activity, MIC by tube dilution (Sabouraud's dextrose broth); assay type: cell-based
Protocol: as §2, §3

[8] = system: Trichophyton soudanese; test: In vitro antifungal activity, MIC by tube dilution; assay type: cell-based; details: strain 2; 72 hrs.
Description: as §2

[9] = system: Aspergillus niger; test: In vitro antifungal activity, MIC by tube dilution; assay type: cell-based; details: 72 hrs.
Description: as §2

[10] = system: Trichophyton mentagrophytes; test: In vitro antifungal activity, MIC by tube dilution; assay type: cell-based; details: 72 hrs.
Description: as §2

[11] = system: Terulopsis glabrata; test: In vitro antifungal activity, MIC by tube dilution; assay type: cell-based
Description: as §2

[12] = system: mice; test: Acute toxicity in mice; assay type: in vivo
Protocol: The acute toxicity of the antibiotic 67-121 complex in mice was determined via intraperitoneal (I.P.) and subcutaneous (S.C.) administration. For comparison, the values of candicidin were determined.

[13] = pKa; details: 66% aqueous dimethylformamide, 66% aqueous dimethyl formamide
[14] = Oral, single dose one hour after infection, survivors 72 hours after infection
[15] = sc, Subcutaneous, single dose one hour after infection, survivors 72 hours after infection

CC1C=CC=CC=CC=CC=CC=CC=CC(OC2OC(C)C(O)C(N)C2O)CC2OC(O)(CC(O)CC(O)CC(O)CC(O)CC(O)CC(O)CC(=O)OC1C(C)CCC(O)CC(=O)c1ccc(N)cc1)CC(O)C2C(=O)O (centres unmarked) [Antibiotic 67-121B]
LD50 ([1]; ip): 6 mg/kg
LD50 ([1]; po): > 50 mg/kg
LD50 ([1]; sc): > 50 mg/kg
ED50 [2, 14]: 18 mg/kg
ED50 [2, 15]: 15 mg/kg
pKa ([3]; pka (COO^-)): 6.3
pKa ([3]; pka (NH3^+)): 9

CNc1ccc(C(=O)CC(O)CCC(C)C2OC(=O)CC(O)CC(O)CC(O)CC(O)CC(O)CC(O)CC3(O)CC(O)C(C(=O)O)C(CC(OC4OC(C)C(OC5OC(CO)C(O)C(O)C5O)C(N)C4O)C=CC=CC=CC=CC=CC=CC=CC2C)O3)cc1 (centres unmarked) [Antibiotic 67-121C]
MIC [4]: 0.3 µg/mL (≈ 0.232 µM)
MIC [5]: 0.3 µg/mL (≈ 0.232 µM)
LD50 ([1]; ip): 6 mg/kg
ED50 [2, 14]: 1.5 mg/kg
ED50 [2, 15]: 2.1 mg/kg
pKa ([3]; pka (COO^-)): 6
pKa ([3]; pka (NH3^+)): 9

Candicidin
PD50 ([6]; Test 1, Oral): 25 mg/kg
PD50 ([6]; Test 1, Subcutaneous): 5 mg/kg
PD50 ([6]; Test 2, Oral): 5 mg/kg
PD50 ([6]; Test 2, Subcutaneous): 5 mg/kg
PD50 ([6]; Test 3, Subcutaneous): 25 mg/kg
PD50 ([6]; Test 4, Oral): 40 mg/kg
PD50 ([6]; Test 4, Subcutaneous): 2.5 mg/kg
Minimum Inhibitory Concentration (M.I.C.) ([7]; strain 401, 24 hrs.): 0.8 meg/ml
Minimum Inhibitory Concentration (M.I.C.) ([7]; strain 401, 48 hrs.): 3.0 meg/ml
Minimum Inhibitory Concentration (M.I.C.) ([7]; strain 402, 24 hrs.): 0.03 meg/ml
Minimum Inhibitory Concentration (M.I.C.) ([7]; strain 402, 48 hrs.): 0.08 meg/ml
Minimum Inhibitory Concentration (M.I.C.) ([7]; strain 403, 24 hrs.): 0.03 meg/ml
Minimum Inhibitory Concentration (M.I.C.) ([7]; strain 403, 48 hrs.): 0.08 meg/ml
Minimum Inhibitory Concentration (M.I.C.) ([7]; strain 404, 24 hrs.): 0.8 meg/ml
Minimum Inhibitory Concentration (M.I.C.) ([7]; strain 404, 48 hrs.): 3.0 meg/ml
Minimum Inhibitory Concentration (M.I.C.) ([7]; strain 406, 24 hrs.): 0.03 meg/ml
Minimum Inhibitory Concentration (M.I.C.) ([7]; strain 406, 48 hrs.): 0.08 meg/ml
Minimum Inhibitory Concentration (M.I.C.) ([7]; strain 420, 24 hrs.): 3.0 meg/ml
Minimum Inhibitory Concentration (M.I.C.) ([7]; strain 420, 48 hrs.): 7.5 meg/ml
Minimum Inhibitory Concentration (M.I.C.) [8]: 25 meg/ml
Minimum Inhibitory Concentration (M.I.C.) [9]: 7.5 meg/ml
Minimum Inhibitory Concentration (M.I.C.) ([10]; strain 1A): 17.5 meg/ml
Minimum Inhibitory Concentration (M.I.C.) ([10]; strain 17): 25 meg/ml
Minimum Inhibitory Concentration (M.I.C.) ([11]; strain 1, 24 hrs.): 0.03 meg/ml
Minimum Inhibitory Concentration (M.I.C.) ([11]; strain 1, 48 hrs.): 0.3 meg/ml
Minimum Inhibitory Concentration (M.I.C.) ([11]; strain 2, 24 hrs.): 0.03 meg/ml
Minimum Inhibitory Concentration (M.I.C.) ([11]; strain 2, 48 hrs.): 0.08 meg/ml
Minimum Inhibitory Concentration (M.I.C.) ([11]; strain 3, 24 hrs.): 0.03 meg/ml
Minimum Inhibitory Concentration (M.I.C.) ([11]; strain 3, 48 hrs.): 0.08 meg/ml
Minimum Inhibitory Concentration (M.I.C.) ([11]; strain 16, 24 hrs.): 0.03 meg/ml
Minimum Inhibitory Concentration (M.I.C.) ([11]; strain 16, 48 hrs.): 0.3 meg/ml
Minimum Inhibitory Concentration (M.I.C.) ([11]; strain 17, 24 hrs.): 0.03 meg/ml
Minimum Inhibitory Concentration (M.I.C.) ([11]; strain 17, 48 hrs.): 0.08 meg/ml
LD50 ([12]; I.P.): 8 to 22 mg/kg
LD50 ([12]; S.C.): 300 mg/kg

CNc1ccc(C(=O)CC(O)CCC(C)C2OC(=O)CC(O)CC(O)CC(O)CC(O)CC(O)CC(O)CC3(O)CC(O)C(C(=O)O)C(CC(OC4OC(C)C(O)C(N)C4O)C=CC=CC=CC=CC=CC=CC=CC2C)O3)cc1 (centres unmarked) [Antibiotic 67-121A]
LD50 ([1]; ip, I.P.): 2.4 mg/kg
LD50 ([1]; sc, S.C.): > 50 mg/kg
LD50 ([1]; Oral): > 50 mg/kg
ED50 ([2]; po, 72 h): 1.5 mg/kg
ED50 ([2]; sc, 72 h): 2.5 mg/kg
pKa ([13]; pka (COO^-)): 6
pKa ([13]; pka (NH3^+)): 9
